Laboratory results as given in EP0473993B1, “Novel peptide derivatives and their pharmaceutical use” (Japan Tobacco Inc., priority 1990, dated 1992).

Legend:
ICR male mice [1] = experiment: Anti-reserpine action (antagonistic action against hypothermia); assay type: in vivo; settings: Mus musculus, 2 h; SC; mice given reserpine 5 mg/kg s.c. 3 or 3.5 hours before; estimated from regression line; read-out: Concentration of test compound necessary for raising body temperature by 1°C on the average for 120 minutes
Protocol: Anti-reserpine action (Antagonistic action against hypothermia)
ICR male mice weighing 35 - 40 g were subcutaneously administered with reserpine at the dose of 5 mg/kg. About 2 hours later, each of the mice was held by a mouse-holder, and a body temperature sensor was intrarectally inserted. Thereafter, the body temperature was automatically measured every 10 minutes. The test compound dissolved in saline was subcutaneously administered 3 or 3.5 hours after administration of reserpine. After the administration of the test compound, the body temperature was measured every 10 minutes over the period of 120 minutes. The area below the body temperature line during the period was calculated, from which the regression line was estimated based upon least square method, and estimated was the amount of the test compound necessary for raising the body temperature by 1°C on the average for 120 minutes from that just before the administration of the test compound (Table 1).

ICR male mice [2] = experiment: Anti-chlorpromazine action (locomotor stimulant action); assay type: in vivo; settings: Mus musculus, 2 h; SC; mice given chlorpromazine HCl 5 mg/kg s.c. one hour before; estimated from regression line; read-out: Concentration of test compound necessary for inducing 3000 count of automatism quantity in 2 hours
Protocol: Anti-chlorpromazine action (Locomotor stimulant action)
ICR male mice weighing 35 - 40 g (four animals per group) were subcutaneously administered with chlorpromazine HCl at the dose of 5 mg/kg and immediately set in the automatic locomotor-measuring apparatus (AUTOMEX). One hour later, the test compound dissolved in saline was subcutaneously administered, and the locomotor activity was measured every 15 minutes for 120 minutes. The total locomotor activity during the period of 120 minutes was calculated and the regression line was estimated based on the method of least squares, from which the amount of the test compound necessary for inducing 3000 locomotor-count was estimated (Table 2).

SMILES | ED (1 C rise of body temperature) (ICR male mice [1]) [mg/kg] | ED (3000 locomotor counts) (ICR male mice [2]) [mg/kg]
CC(C)C[C@H](NC(=O)[C@H]1NC(=O)C[C@H]1C)C(=O)N1CCC[C@H]1C(N)=O [Compound 1A, N-(cis-3-Methylpyroglutamyl)-L-leucyl-L-prolinamide] | 0.18 | 2.63
CSCC[C@H](NC(=O)[C@H]1NC(=O)C[C@H]1C)C(=O)N1CCC[C@H]1C(N)=O [Compound 2A, N-(cis-3-Methylpyroglutamyl)-L-methionyl-L-prolinamide] | 0.48 | 1.64
CCC[C@H](NC(=O)[C@H]1NC(=O)C[C@H]1C)C(=O)N1CCC[C@H]1C(N)=O [Compound 3A, N-(cis-3-Methylpyroglutamyl)-L-norvalyl-L-prolinamide] | 0.91 | –
CCCC[C@H](NC(=O)[C@H]1NC(=O)C[C@H]1C)C(=O)N1CCC[C@H]1C(N)=O [Compound 5A, N-(cis-3-Methylpyroglutamyl)-L-norleucyl-L-prolinamide] | 0.33 | 16.3
NC(=O)[C@@H]1CCCN1C(=O)[C@H](Cc1c[nH]cn1)NC(=O)[C@@H]1CCC(=O)N1 [TRH, L-pyroglutamyl-L-histidyl-L-prolinamide, reference compound] | – | 6.82
